Laboratory results from patent US8637087B2, “Treatment of interstitial cystitis using (6aR, 10aR)-Δ8-tetrahydrocannabinol-11-OIC acids” (JB Therapeutics Inc., priority 2004, dated 2014).

Tests used:
[1] = system: bladder hyperactivity induced by infusing acetic acid; assay: Instillation of liposomal drug 24 h / 48 h before acetic acid-induced bladder hyperactivity (CMG); format: in vivo, rats; settings: intravesical, two subjects per group
Description: Similarly, instillation of liposomal-Compound 3a was first conducted. Then, 24 hours and 48 hours after instillation, under urethane anesthesia, bladder hyperactivity was induced by infusing acetic acid at the concentration of 0.125% and 025%. Prior to acetic acid infusion, baseline CMG was conducted by saline infusion (0.04 ml/min) to measure intercontraction interval (ICI). A percentage reduction in ICI was measured following acetic acid infusion as an indicator of bladder irritation.
(§1) See, FIGS. 9B and 9C, respectively. Each group consisted of a minimum of seven subjects, except for those of a preliminary dose response study, where two subjects were used in each group. The preliminary dose response study indicated an optimal Compound 3a dose of 0.8 mg/ml. See, FIG. 9A. In these experiments, 1.6 mg/ml was highest concentration of Compound 3a encapsulated into liposomes; higher concentrations apparently compromised formulation stability.

[2] = system: bladder overactivity induced by intravesical administration of acetic acid solution; assay: Cystometrograms, acute bladder irritation by acetic acid infusion, i.v. drug; format: in vivo, rats; settings: for intercontraction interval (ICI), % of the control value: 0.25% acetic acid infusion, vehicle 42.9%; for pressure threshold (PT), % of the control value: vehicle 87.1%
Description: (§2) Cystometrograms (CMGs) were performed under urethane anesthesia (1 g/kg s.c.) using a catheter inserted into the bladder through the bladder dome via a midline abdominal incision. Saline was infused at a rate of 0.04 ml/min to elicit repetitive bladder contractions. Effects of intravenous (i.v.) injection of Compound 3a on bladder overactivity induced by either intravesical administration of acetic acid solution or one day treatment with cyclophosphamide were investigated. […] Thus, these compounds can be effective for the treatment of pain and urinary frequency symptoms in patients with painful bladder syndrome/interstitial cystitis.
Saline infusion was performed for 1 to 2 hours prior to drug (or vehicle) administration and control CMGs were recorded. Compound 3a (aka CT-3 or IP-751, dissolved in 30% Cremophor EL saline solution; three concentrations of 1, 3, and 10 mg/kg) or vehicle was administrated intravenously when starting infusion of acetic acid solution (0.25%) into the bladder.
Changes in cystometric parameters such as intercontraction intervals (ICIs), maximum voiding pressure (MVP), pressure threshold (PT) and baseline pressure (BP) were evaluated before and after i.v. administration of Compound 3a or vehicle.
In the vehicle group, 0.25% acetic acid infusion induced significant bladder overactivity, as evidenced by a reduction in ICIs to 42.9% of the control value.

[3] = Encapsulation into liposomes / formulation stability; format: physicochemical
Description: as §1

[4] = system: cyclophosphamide-induced bladder overactivity; assay: Cystometrograms, subacute bladder irritation by cyclophosphamide, i.v. drug; format: in vivo, rats
Description: as §2
One day after intraperitoneal injection of cyclophosphamide (CYP, 150 mg/kg), control CMGs were recorded for 1 to 2 hour prior to i.v. administration of Compound 3a or vehicle. See, example i, above. Following administration of Compound 3a, changes in cystometric parameters such as ICIs, MVP, PT and BP were recorded to evaluate the effects of Compound 3a on cyclophosphamide-induced bladder overactivity.
Bladder overactivity indicated by significant ICI reductions was observed one day after CYP injection.

[5] = 10 mg/kg, worded as 'expected to increase'
[6] = CYP-treated rats, after administration

SMILES | optimal dose in preliminary dose response study [1] [mg/mL] | intercontraction interval (ICI), % of the control value ([2]; 1 mg/kg i.v.) | pressure threshold (PT), % of the control value ([2]; 1 mg/kg i.v.) | intercontraction interval (ICI), % of the control value ([2]; 3 mg/kg i.v.) | pressure threshold (PT), % of the control value ([2]; 3 mg/kg i.v.) | intercontraction interval (ICI), % of the control value ([2]; 10 mg/kg i.v., P<0.05, n=6) | acetic acid-induced bladder overactivity ([2]; 10 mg/kg i.v., without affecting bladder contractions during voiding) | pressure threshold (PT), % of the control value [2, 5] | baseline pressure (BP), change ([2]; i.v., acetic acid infusion) | maximum voiding pressure (MVP), change ([2]; i.v., acetic acid infusion) | highest concentration encapsulated into liposomes (higher concentrations compromised formulation stability) [3] [mg/mL] | CYP-induced bladder overactivity ([4]; 10 mg/kg i.v., CYP-treated rats) | intercontraction interval (ICI) after drug ([4]; 10 mg/kg i.v., one day after CYP 150 mg/kg i.p., control value 3.65 min, vehicle 3.89 vs. 3.94 min) [min] | baseline pressure (BP), change [4, 6] | maximum voiding pressure (MVP), change [4, 6] | pressure threshold (PT), change [4, 6]
CCCCCCC(C)(C)c1cc(O)c2c(c1)OC(C)(C)[C@@H]1CC=C(C(=O)O)CC21 (stereo partly drawn) [Compound 3a, (6aR,10aR)-Δ^8-THC-DMH-11-oic Acid] | 0.8 | 45.2 % of the control value | 74.1 % of the control value | 51.1 % of the control value | 94.1 % of the control value | 112.4 % of the control value | significantly suppressed | 127.2 % of the control value | No significant changes | No significant changes | 1.6 | significantly suppressed | 5.14 | No significant changes | No significant changes | No significant changes
CCCCCCC(C)(C)c1cc(OC(C)=O)c2c(c1)OC(C)(C)[C@@H]1CC=C(C(=O)O)C[C@@H]21 [Compound 3c, (6aR,10aR)-Δ^8-THC-DMH-11-oic Acid Acetate] |  |  |  |  |  |  |  | 127.2 % of the control value |  |  |  |  |  |  |  | 
